Patent publication US20050282818A1, “Ubiquitin ligase inhibitors” (Rigel Pharmaceuticals, Inc., priority 2004, published 2005)
Like-named read-outs stand apart in the source and are kept apart here.

Key:
A549 cells = experiment: Cell proliferation PAD assay, A549; format: cell-based; details: Homo sapiens, 48 hours
Method: (§1) Cell lines used are available from American Type Culture Collection (ATCC), for example, cell cultures containing A549 (ATCC# CCL-185), HeLa (ATCC# CCL-2), HCT116 ATTC# CCL-247), and H1299 (ATCC# CRL-5803) cells were maintained in T175 flasks following the ATCC recommended media and handling procedures. […] A 20,000 cells/ml solution was made for plating. Cells were plated in black Packard 96 well plates by placing 100 μl per well (2,000 cells per well). […] The definitions of the cell types used are as follows: A549 is lung carcinoma; HI 299 is non-small cell lung carcinoma; HI 155 is non-small cell lung carcinoma; AsPC-1 is pancreatic adenocarcinoma; Caov-3 is ovarian adenocarcinoma; COLO 205 is colorectal adenocarcinoma; DLD-1 colorectal adenocarcinoma; HCT116 is colorectal carcinoma; DU 145 is prostate carcinoma; ES-2 is ovarian clear cell carcinoma; H460 is large cell lung carcinoma; HELA is cervical adenocarcinoma; MIA PaCa-2 is pancreatice carcinoma; OVCAR-3 is ovarian adenocarcinoma; OVCAR8 is ovarian carcinoma; PC3 is prostate adenocarcinoma; SK-OV-3 is ovarian adenocarcinoma; SU86.86 is pancreatic carcinoma; TOV-21G is avarian clear cell carcinoma; U2OS is bone osteosarcoma; is ASPC-I is pancreatic adenocarcinoma; BXPC-3 is pabcreatic adenocarcinoma; HL60 is promyeloblast promyelocytic leukemia; K562 is bone marrow chronic myelogenous leukemia; L1210 is mouse lymphocytic leukemia; MOLT3 is T lymphoblast acute lymphoblastic leukemia; MOLT4 is T lymphoblast acute lymphoblastic leukemia; SW620 is colorectal adenocarcinoma; THP-1 is monocyte acute monocytic leukemia; U937 is histiocytic lymphoma; and UACC-257 is melanoma.
(§2) Compounds and additional media were added 24 hours after cell plating. […] All compound testing was done in duplicate using 6.3 fold dilutions starting with 10 mM. […] Taxol and at least one additional control were run on all plates. Three microliters of the compound master plate were added to deep well blocks containing 750 μl of RPMI media. One hundred microliters were transferred from the compound/media deep well blocks to the plated cells resulting in a 500 fold dilution of the compounds. Cells were grown at 37° C., 5% CO2 for 48 hours.
(§3) Cells to be analyzed by photography were fixed and stained. One hundred microliters of media were removed and 100 μl of 9.3% formamide was added to each well. Plates were left on the benchtop for 45 minutes. A staining solution containing 1.55 μl of 1 mg/ml DAPI added to 18.75 ml PBS was warmed for 15 minutes at 37° C. The cells were aspirated prior to washing with 100 μl of PBS. Seventy microliters of PBS were aspirated and 170 μl of the DAPI solution were added to each well of fixed cells. Plates were left at room temperature for one hour then aspirated and washed twice with 100 μl of PBS. The stained cells were left at 4° C. for a minimum of 16 hours before photographic analysis with Array Scan II (Cellomics). Analysis of the photographic images to determine numbers of live cells (proliferation), apoptotic cells and dead cells, were according to the methods described in U.S. Utility patent application Ser. No. 10/652,440, which incorporated herein in its entirety.

H1299 cells = experiment: Cell proliferation PAD assay, H1299; format: cell-based; details: Homo sapiens, 48 hours
Method: as §1, §2, §3

TRAF6/Uev1A/Ubc13 = target: T1, TRAF6/Uev1A/Ubc13 (Homo sapiens, UniProt Q9Y4K3); experiment: TRAF6/Uev1A/Ubc13 plate-based ubiquitin ligase assay; format: biochemical
T1 sequence (Q9Y4K3 1-522): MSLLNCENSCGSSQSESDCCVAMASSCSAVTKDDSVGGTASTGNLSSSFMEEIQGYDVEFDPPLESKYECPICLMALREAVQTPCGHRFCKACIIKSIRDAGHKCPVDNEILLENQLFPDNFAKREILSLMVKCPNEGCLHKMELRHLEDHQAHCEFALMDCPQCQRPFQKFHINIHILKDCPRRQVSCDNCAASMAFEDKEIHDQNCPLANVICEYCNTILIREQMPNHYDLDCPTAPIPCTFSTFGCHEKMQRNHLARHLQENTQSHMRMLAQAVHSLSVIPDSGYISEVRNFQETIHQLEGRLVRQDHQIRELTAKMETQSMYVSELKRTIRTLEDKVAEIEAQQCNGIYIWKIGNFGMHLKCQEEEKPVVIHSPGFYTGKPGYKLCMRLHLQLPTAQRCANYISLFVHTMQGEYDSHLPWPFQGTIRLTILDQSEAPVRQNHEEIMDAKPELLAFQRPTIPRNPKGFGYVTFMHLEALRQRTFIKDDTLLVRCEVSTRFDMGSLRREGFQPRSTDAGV
Method: For the assays described below, the TRAF6/Uev1A/UBC13 assay is the biochemical plate-based assay of TRAF6 ligase activity using Ubc13 as the E2 enzyme. The gel-based assay is the biochemical solution-based TRAF6 ligase assay (by SDS-PAGE and Western blot) to confirm the plate-based ELISA assay. The APC assay is an assay which is another E3 ligase (APC2/APC11) biochemical assay.
A 96-well Ni-plate was blocked with 100 μl of 1% casein in PBS for 1 hour at room temperature. The plates were then washed three times with 200 μl of 1×PBS and 80 μl of a reaction buffer was added per well which contained 50 ng of Flag-ubiquitin, 50 ng of His-ubiquitin, 62.5 mM Tris pH 7.5, 6.25 mM MgCl2, 1.0 mM DTT, and 2 μM ATP. To each well was added 10 μl of a solution of the compound in DMSO. The reaction was started by adding 10 μl of a solution consisting of 10 ng human E1, 25 ng each of Uev1a and Ubc13, and 100 ng TRAF6 in the reaction buffer. The plates were shaken for 10 minutes and incubate at room temperature for 1 hour. After the incubation, the plates were washed three times with 200 μl 1×PBS in 0.05% Tween and 100 μl of an antibody mix consisting of anti-Flag (1:30,000 dilution; Sigma F-3165) and anti-Mouse IgG-HRP (1/150,000 dilution; Jackson Immunoresearch #115-035-146) in 1×PBS with 0.25% BSA. The plates were then incubated for another 1 hour at room temperature, and after incubation the plate was washed three times with 200 μl 1×PBS with 0.05% Tween. The amount of ubiquitin was measured by adding 100 μl of Lumino substrate (1:5 dilution) and reading the luminescence with a fluorimeter.
Table 2 below illustrates the inhibitory activity of the compounds of the invention determined by the TRAF6/Uev1A/Ubc13 assay as well as in the ICAM, APC and the ROC1/CUL1 Ubiquitin Ligase Assay (SCF Assay). The IC50 values were determined using a various concentrations of the compounds.

[1] = NCI-H1299, 6pt, read-out: H1299 6pt
[2] = NCI-H1299, 3pt, read-out: H1299 3pt

Row | SMILES | IC50 (A549 cells; 3pt, read-out: A549 3pt) | IC50 (H1299 cells; [2]) | other results
1 | COc1cccc(-c2ccc([N+](=O)[O-])c3nonc23)c1 [compound 319, 7-(3-Methoxyphenyl)-4-nitro-2,1,3-benzoxadiazole] |  |  | IC50 (A549 cells; 6pt, read-out: A549 6pt): < 1 µM; IC50 (H1299 cells; [1]): < 1 µM
2 | Cc1cccc(-c2cccc3nonc23)c1 [compound 306, 4-(3-Methylphenyl)-2,1,3-benzoxadiazole] |  |  | IC50 (TRAF6/Uev1A/Ubc13): ≥ 20 µM; IC50 (A549 cells; 6pt, read-out: A549 6pt): ≥ 20 µM
3 | COc1ccccc1-c1cc(Cl)c2nonc2c1 [compound 330, 4-Chloro-6-(2-methoxyphenyl)-2,1,3-benzoxadiazole] |  |  | IC50 (A549 cells; 6pt, read-out: A549 6pt): ≥ 20 µM
4 | CSc1ccc(-c2ccc([N+](=O)[O-])c3nonc23)cc1 [compound 318, 7-[4-(Methylthio)phenyl]-4-nitro-2,1,3-benzoxadiazole] |  |  | IC50 (A549 cells; 6pt, read-out: A549 6pt): < 1 µM; IC50 (H1299 cells; [1]): < 1 µM
5 | Cc1cc(NS(=O)(=O)c2cccc3nonc23)ccc1I [compound 18, N-(4-iodo-3-methylphenyl)-2,1,3-benzoxadiazole-4-sulfonamide] | ≥ 20 µM | ≥ 20 µM | 
6 | N#Cc1ccccc1S(=O)(=O)Nc1cccc2nsnc12 [compound 100, N-2,1,3-benzothiadiazol-4-yl-2-cyanobenzenesulfonamide] | ≥ 20 µM | ≥ 20 µM | 
7 | CCOC(=O)c1cccc(NS(=O)(=O)c2cccc3nonc23)c1 [compound 74, ethyl 3-[(2,1,3-benzoxadiazol-4-ylsulfonyl)amino]benzoate] | ≥ 20 µM | ≥ 20 µM | 
8 | O=S(=O)(c1cccc2nonc12)N1CCN(c2cc(C(F)(F)F)ccn2)CC1 [compound 124, 4-({4-[4-(trifluoromethyl)pyridin-2-yl]piperazin-1-yl}sulfonyl)-2,1,3-benzoxadiazole] | ≥ 20 µM | ≥ 20 µM | 
9 | O=S(=O)(c1cccc2nonc12)N1CCN(c2ccc(Cl)c(C(F)(F)F)c2)CC1 [compound 132, 4-({4-[4-chloro-3-(trifluoromethyl)phenyl]piperazin-1-yl}sulfonyl)-2,1,3-benzoxadiazole] | ≥ 20 µM | ≥ 20 µM | 
10 | Cc1cc2cc(NS(=O)(=O)c3cccc4nonc34)ccc2[nH]1 [compound 24, N-(2-methyl-1H-indol-5-yl)-2,1,3-benzoxadiazole-4-sulfonamide] | 1 to 20 µM | 1 to 20 µM | 
11 | O=C(CN1CCN(S(=O)(=O)c2cccc3nonc23)CC1)N1CCOCC1 [compound 129, 4-{[4-(2-morpholin-4-yl-2-oxoethyl)piperazin-1-yl]sulfonyl}-2,1,3-benzoxadiazole] | ≥ 20 µM | ≥ 20 µM | 
12 | Cc1ccc(Cl)cc1NS(=O)(=O)c1cccc2nonc12 [compound 56, N-(5-chloro-2-methylphenyl)-2,1,3-benzoxadiazole-4-sulfonamide] | ≥ 20 µM | ≥ 20 µM | 
13 | Fc1cc(F)cc(-c2cc(Cl)c3nonc3c2)c1 [compound 324, 4-Chloro-6-[3,5-(difluoro)phenyl]-2,1,3-benzoxadiazole] |  |  | IC50 (A549 cells; 6pt, read-out: A549 6pt): ≥ 20 µM; IC50 (H1299 cells; [1]): ≥ 20 µM
14 | O=[N+]([O-])c1cccc(-c2cc(Cl)c3nonc3c2)c1 [compound 331, 4-Chloro-6-(3-nitrophenyl)-2,1,3-benzoxadiazole] |  |  | IC50 (A549 cells; 6pt, read-out: A549 6pt): ≥ 20 µM
15 | O=[N+]([O-])c1c(N2CCCCC2)cc(N2CCN(c3ccc(Cl)c(C(F)(F)F)c3)CC2)c2nonc12 [compound 295, 7-{4-[4-chloro-3-(trifluoromethyl)phenyl]piperazin-1-yl}-4-nitro-5-piperidin-1-yl-2,1,3-benzoxadiazole] |  |  | IC50 (TRAF6/Uev1A/Ubc13): ≥ 20 µM
16 | CCN(CC)c1cc(N2CCC3(CC2)OCc2ccccc23)c2nonc2c1[N+](=O)[O-] [compound 298, N,N-diethyl-4-nitro-7-(1′H,3H-spiro[2-benzofuran-1,4′-piperidin]-1′-yl)-2,1,3-benzoxadiazol-5-amine] |  |  | IC50 (TRAF6/Uev1A/Ubc13): ≥ 20 µM
17 | O=S(=O)(Nc1cccc(F)c1)c1ccc(F)c2nonc12 [compound 272, 7-fluoro-N-(3-fluorophenyl)-2,1,3-benzoxadiazole-4-sulfonamide] |  |  | IC50 (TRAF6/Uev1A/Ubc13): ≥ 20 µM
18 | O=C1OC2(CCN(c3cc(N4CCCCC4)c([N+](=O)[O-])c4nonc34)CC2)c2ccccc21 [compound 304, 1′-(7-nitro-6-piperidin-1-yl-2,1,3-benzoxadiazol-4-yl)-3H-spiro[2-benzofuran-1,4′-piperidin]-3-one] |  |  | IC50 (TRAF6/Uev1A/Ubc13): ≥ 20 µM
19 | CCOc1ccc2nc(NS(=O)(=O)c3ccc(Cl)c4nonc34)sc2c1 [compound 198, 7-chloro-N-(6-ethoxy-1,3-benzothiazol-2-yl)-2,1,3-benzoxadiazole-4-sulfonamide] |  |  | IC50 (TRAF6/Uev1A/Ubc13): ≥ 20 µM

More lines, main results first:

Row | IC50 (A549 cells; 3pt, read-out: A549 3pt) | IC50 (H1299 cells; [2]) | SMILES | other results
20 | ≥ 20 µM | ≥ 20 µM | O=S(=O)(c1cccc2nonc12)N1CCN(c2ccccn2)CC1 [compound 123, 4-[(4-Pyridin-2-ylpiperazin-1-yl)-sulfonyl]-2,1,3-benzoxadiazole] | 
21 | ≥ 20 µM | ≥ 20 µM | CC(=O)N1CCN(S(=O)(=O)c2cccc3nonc23)CC1 [compound 128, 4-[(4-acetylpiperazin-1-yl)sulfonyl]-2,1,3-benzoxadiazole] | 
22 | ≥ 20 µM | 1 to 20 µM | O=S(=O)(Nc1c(F)cccc1F)c1cccc2nonc12 [compound 15, N-(2,6-difluorophenyl)-2,1,3-benzoxadiazole-4-sulfonamide] | 
23 | ≥ 20 µM | ≥ 20 µM | O=S(=O)(Nc1cc(F)ccc1F)c1cccc2nonc12 [compound 27, N-(2,5-difluorophenyl)-2,1,3-benzoxadiazole-4-sulfonamide] | 
24 | ≥ 20 µM |  | COC(=O)c1ccc(NS(=O)(=O)c2ccc(Cl)c3nonc23)cc1 [compound 8, Methyl 4-{[(7-chloro-2,1,3-benzoxadiazol-4-yl)sulfonyl]amino}benzoate] | IC50 (TRAF6/Uev1A/Ubc13): ≥ 20 µM
